Results reported in the NIST ThermoML archive (doi:10.1021/je060496l).

Key:
[1] = 101 kPa, Liquid
[2] = xn = mol fraction of the nth substance listed; conditions: 101 kPa, Liquid

CC(O)CO (configuration not stated) [1,2-propanediol]
[1]
Conditions | mass density [kg/m3]
298.15 K | 1032.5
303.15 K | 1029.2
308.15 K | 1025.3
313.15 K | 1021.5
318.15 K | 1018
323.15 K | 1014
328.15 K | 1010.2
333.15 K | 1006.2

CC(O)CO (configuration not stated) [1,2-propanediol] + OCC(O)CO
mass density [kg/m3], [2]
Conditions | x2 = 0 | x2 = 0.0841 | x2 = 0.1712 | x2 = 0.2615 | x2 = 0.3552 | x2 = 0.4524 | x2 = 0.5534 | x2 = 0.6585 | x2 = 0.7677 | x2 = 0.8815
298.15 K | 1032.5 | 1052.6 | 1072.7 | 1094.1 | 1115.8 | 1138.3 | 1161 | 1184.4 | 1207.8 | 1233.3
303.15 K | 1029.2 | 1049.2 | 1069.6 | 1090.5 | 1112.6 | 1134.8 | 1157.5 | 1181.2 | 1205 | 1230.1
308.15 K | 1025.3 | 1045.7 | 1066.1 | 1087.1 | 1109.3 | 1131.4 | 1154.2 | 1178 | 1202.2 | 1227.4
313.15 K | 1021.5 | 1042 | 1062.4 | 1083.8 | 1105.6 | 1128.2 | 1151.2 | 1175.1 | 1199.2 | 1224.4
318.15 K | 1018 | 1038.5 | 1058.6 | 1080.2 | 1102.3 | 1124.8 | 1147.9 | 1171.5 | 1195.6 | 1221
323.15 K | 1014 | 1034.7 | 1055 | 1076.3 | 1098.3 | 1121.2 | 1144.1 | 1168.1 | 1192.5 | 1218
328.15 K | 1010.2 | 1031 | 1051.4 | 1072.7 | 1094.7 | 1117.5 | 1140.5 | 1164.6 | 1189 | 1214.7
333.15 K | 1006.2 | 1027.2 | 1047.6 | 1069.2 | 1091.2 | 1114.3 | 1137.3 | 1161.3 | 1185.8 | 1211.3

OCC(O)CO [glycerol]
[1]
Conditions | mass density [kg/m3]
298.15 K | 1258.9
303.15 K | 1255.6
308.15 K | 1252.7
313.15 K | 1249.5
318.15 K | 1246.2
323.15 K | 1242.9
328.15 K | 1239.6
333.15 K | 1236

OCC(O)CO [glycerol] + CC(C)O
mass density [kg/m3], [2]
Conditions | x1 = 0.0676 | x1 = 0.1402 | x1 = 0.2185 | x1 = 0.3031 | x1 = 0.3949 | x1 = 0.4946 | x1 = 0.6036 | x1 = 0.723 | x1 = 0.8545 | x1 = 1
298.15 K | 813.5 | 848.6 | 887.5 | 929.1 | 974.3 | 1023.8 | 1077 | 1135.2 | 1196.5 | 1258.9
303.15 K | 809.5 | 844.7 | 883.8 | 926.4 | 970.6 | 1020 | 1073.4 | 1131.9 | 1193.4 | 1255.6
308.15 K | 805.5 | 840.5 | 879.9 | 922.3 | 967.3 | 1016.2 | 1070.4 | 1128.5 | 1190 | 1252.7
313.15 K | 801.4 | 836.1 | 875.9 | 918.4 | 963.4 | 1012.6 | 1067 | 1125 | 1186.8 | 1249.5
318.15 K | 796.8 | 831.9 | 871.7 | 914.5 | 959.2 | 1008.7 | 1063.1 | 1121.3 | 1183.2 | 1246.2
323.15 K | 792.2 | 827.6 | 867.4 | 910.2 | 955.3 | 1004.8 | 1059.6 | 1117.6 | 1180.3 | 1242.9
328.15 K | 787.5 | 823.3 | 863.3 | 906.2 | 951.3 | 1000.9 | 1055.7 | 1114.1 | 1176.6 | 1239.6
333.15 K | 782.9 | 818.4 | 858.8 | 901.6 | 947.5 | 997.2 | 1051.9 | 1110.5 | 1173.1 | 1236

OCC(O)CO [glycerol] + CC(O)CO
[2], x1 = 1
Conditions | mass density [kg/m3]
298.15 K | 1258.9
303.15 K | 1255.6
308.15 K | 1252.7
313.15 K | 1249.5
318.15 K | 1246.2
323.15 K | 1242.9
328.15 K | 1239.6
333.15 K | 1236

OCC(O)CO [glycerol] + CCCO
mass density [kg/m3], [2]
Conditions | x1 = 0.0676 | x1 = 0.1402 | x1 = 0.2185 | x1 = 0.3031 | x1 = 0.3949 | x1 = 0.4946 | x1 = 0.6036 | x1 = 0.723 | x1 = 0.8545 | x1 = 1
298.15 K | 832.8 | 867.3 | 903.5 | 942.9 | 986 | 1032.7 | 1083.1 | 1138.8 | 1198.7 | 1258.9
303.15 K | 828.9 | 863.2 | 900 | 939.3 | 982.1 | 1029.5 | 1079.9 | 1135.7 | 1195.6 | 1255.6
308.15 K | 825 | 859.4 | 896 | 935.6 | 978.4 | 1025.9 | 1076.3 | 1132.4 | 1192.7 | 1252.7
313.15 K | 820.7 | 855.4 | 892.1 | 931.5 | 974.7 | 1022.3 | 1072.7 | 1128.8 | 1189.5 | 1249.5
318.15 K | 816.8 | 851.3 | 888.3 | 927.7 | 970.8 | 1018.4 | 1069.2 | 1125.5 | 1186.1 | 1246.2
323.15 K | 812.5 | 847.2 | 884.1 | 923.6 | 966.8 | 1014.7 | 1065.5 | 1122 | 1182.7 | 1242.9
328.15 K | 808.4 | 843.1 | 880.3 | 919.7 | 963.3 | 1010.8 | 1061.8 | 1118.3 | 1179.2 | 1239.6
333.15 K | 804.3 | 839.2 | 876.3 | 915.7 | 959.4 | 1006.8 | 1058 | 1114.3 | 1175.8 | 1236

OCC(O)CO [glycerol] + OCCCO
[2], x1 = 1
Conditions | mass density [kg/m3]
298.15 K | 1258.9
303.15 K | 1255.6
308.15 K | 1252.7
313.15 K | 1249.5
318.15 K | 1246.2
323.15 K | 1242.9
328.15 K | 1239.6
333.15 K | 1236

OCCCO [propan-1,3-diol]
[1]
Conditions | mass density [kg/m3]
298.15 K | 1049.9
303.15 K | 1047
308.15 K | 1044.1
313.15 K | 1040.8
318.15 K | 1037.8
323.15 K | 1034.8
328.15 K | 1031.4
333.15 K | 1028.2

OCCCO [propan-1,3-diol] + OCC(O)CO
mass density [kg/m3], [2]
Conditions | x2 = 0 | x2 = 0.0841 | x2 = 0.1712 | x2 = 0.2615 | x2 = 0.3552 | x2 = 0.4524 | x2 = 0.5534 | x2 = 0.6585 | x2 = 0.7677 | x2 = 0.8815
298.15 K | 1049.9 | 1067.8 | 1086.4 | 1105.7 | 1125.6 | 1146.4 | 1167.6 | 1189.3 | 1212.6 | 1235.2
303.15 K | 1047 | 1065 | 1083.5 | 1103 | 1122.8 | 1143.4 | 1164.6 | 1186.4 | 1209 | 1232.1
308.15 K | 1044.1 | 1062 | 1080.6 | 1100 | 1119.8 | 1140.6 | 1161.8 | 1183.5 | 1206.1 | 1229.3
313.15 K | 1040.8 | 1058.8 | 1077.5 | 1096.9 | 1116.8 | 1137.3 | 1158.7 | 1180.4 | 1203 | 1226.1
318.15 K | 1037.8 | 1055.7 | 1074.5 | 1093.9 | 1113.7 | 1134.3 | 1155.6 | 1177.2 | 1199.7 | 1222.8
323.15 K | 1034.8 | 1052.7 | 1071.4 | 1090.9 | 1110.7 | 1131.2 | 1152.5 | 1174.1 | 1196.6 | 1219.8
328.15 K | 1031.4 | 1049.3 | 1068.1 | 1087.6 | 1107.5 | 1127.8 | 1149.2 | 1170.8 | 1193.4 | 1216.6
333.15 K | 1028.2 | 1046.1 | 1064.9 | 1084.4 | 1104.1 | 1124.6 | 1145.9 | 1167.5 | 1190 | 1213.3

CCCO [propan-1-ol]
[1]
Conditions | mass density [kg/m3]
298.15 K | 799.6
303.15 K | 795.5
308.15 K | 791.5
313.15 K | 787.3
318.15 K | 783.3
323.15 K | 779
328.15 K | 774.9
333.15 K | 770.8

CCCO [propan-1-ol] + OCC(O)CO
[2], x2 = 0
Conditions | mass density [kg/m3]
298.15 K | 799.6
303.15 K | 795.5
308.15 K | 791.5
313.15 K | 787.3
318.15 K | 783.3
323.15 K | 779
328.15 K | 774.9
333.15 K | 770.8

CC(C)O [propan-2-ol]
[1]
Conditions | mass density [kg/m3]
298.15 K | 780.6
303.15 K | 776.6
308.15 K | 772.3
313.15 K | 767.9
318.15 K | 763.3
323.15 K | 758.6
328.15 K | 753.8
333.15 K | 748.9

CC(C)O [propan-2-ol] + OCC(O)CO
[2], x2 = 0
Conditions | mass density [kg/m3]
298.15 K | 780.6
303.15 K | 776.6
308.15 K | 772.3
313.15 K | 767.9
318.15 K | 763.3
323.15 K | 758.6
328.15 K | 753.8
333.15 K | 748.9
